Converted amounts (≈) assume the structure as drawn. Where two headings read alike, the source gives them in different places.
How the values were obtained:
[1] = system: Staphylococcus aureus ATCC 29213; details: S. aureus ATCC 29213, CLSI QC ranges shown in parentheses, cited from earlier work
[2] = system: Neisseria gonorrhoeae; assay: Agar dilution MIC assay, 25 isolates (Example 3); assay type: cell-based; details: for Number of isolates at MIC 0.015 μg mL^−1 / Number of isolates at MIC 0.03 μg mL^−1 / Number of isolates at MIC 0.06 μg mL^−1 / Number of isolates at MIC 0.08 μg mL^−1 / Number of isolates at MIC 0.12 μg mL^−1 / Number of isolates at MIC 0.25 μg mL^−1 / Number of isolates at MIC 0.5 μg mL^−1 / Number of isolates at MIC 1 μg mL^−1 / Number of isolates at MIC 2 μg mL^−1 / Number of isolates at MIC 4 μg mL^−1 / Number of isolates at MIC 8 μg mL^−1 / Number of isolates at MIC >8 μg mL^−1 / Number of isolates at MIC ≤0.004 μg mL^−1: 25 isolates, agar dilution assay, MIC distribution; for MIC / MIC50 / MIC90: Neisseria gonorrhoeae, agar dilution; for MIC50 / MIC90: 25 isolates of N. gonorrhoeae
Description: The MIC of Neisseria gonorrhoea was established using an agar dilution MIC assay.
Test drugs were provided by Micromyx. All stock solutions were allowed to stand for at least 1 hr prior to use to auto-sterilize. Leftover stock solutions of comparator drugs were aliquoted and stored at −80° C. Suppliers, catalog/lot numbers, solvents, stock concentrations and testing ranges were as follows.
Test organisms were reference strains from the American Type Culture Collection (ATCC; Manassas, Va.), isolates from WHO, isolates from the CDC antibiotic resistance bank, and clinical isolates from the Micromyx (MMX) repository. Upon receipt at Micromyx, the isolates were streaked under suitable conditions onto agar medium appropriate to each organism and were incubated for 24-48 hr at 35° C. Colonies harvested from these growth plates were resuspended in the appropriate medium containing a cryoprotectant. Aliquots of each suspension were then frozen at −80° C.
Prior to testing, the isolates were sub-cultured onto Chocolate agar (Becton Dickenson [BD]/BBL; Sparks, Md., Cat. No. 221267, Lot No. 9346275) and placed at 35° C. in a CO2 incubator for 24 hrs.
MIC values were determined using the agar dilution method (1, 2). All serial dilutions and liquid handling were performed by hand using sterile pipettes. […] Cannabidiol was prepared as a stock solution at 100× the final concentration in the appropriate solvent and diluted according to CLSI guidelines.
Each test agent was mixed with molten (50-55° C.) GC media agar supplemented with 1% IsoVitalex. […] All other test agents were added to the medium in a ratio of 0.2 mL 100× test agent to 19.8 mL agar. Once test agents were added to the agar in a sterile tube, they were mixed gently and then poured into a sterile 110×15 mm petri dish. Plates were allowed to solidify at room temperature and placed in a laminar air flow hood with the covers off to remove condensed moisture on the agar surface.
Next, each isolate was suspended to the equivalent of a 0.5 McFarland standard in saline using a Siemens Microscan turbidity meter and diluted 1:10. Each bacterial cell suspension was then transferred to wells in a stainless-steel replicator block. The prongs on the replicator deliver approximately 1-2 μl of inoculum to an agar surface. The resulting inoculum spots contained approximately 10^4 cells/spot.
Each agar plate containing either test compound or no drug (control) was stamped with the replicator. All plates were placed with the agar surface up to allow for the inoculum to soak into the agar. The plates were inverted and incubated at 35° C. for 24 hrs in a CO2 incubator and finally inspected for growth.

[3] = ATCC49226, N. gonorrhoeae ATCC 49226 (QC)
[4] = N. gonorrhoeae MMX 10409 (CIP-R)
[5] = NCTC13477, N. gonorrhoeae NCTC 13477 (WHO F)
[6] = NCTC13478, N. gonorrhoeae NCTC 13478 (WHO G)
[7] = NCTC13479, N. gonorrhoeae NCTC 13479 (WHO K)
[8] = NCTC13480, N. gonorrhoeae NCTC 13480 (WHO L)
[9] = NCTC13481, N. gonorrhoeae NCTC 13481 (WHO M)
[10] = NCTC13482, N. gonorrhoeae NCTC 13482 (WHO N)
[11] = NCTC13483, N. gonorrhoeae NCTC 13483 (WHO O)
[12] = NCTC13817, N. gonorrhoeae NCTC 13817 (WHO U)
[13] = NCTC13818, N. gonorrhoeae NCTC 13818 (WHO V)
[14] = NCTC13819, N. gonorrhoeae NCTC 13819 (WHO W)
[15] = NCTC13820, N. gonorrhoeae NCTC 13820 (WHO X)

Question: Which results are given for `CC[C@H]1OC(=O)[C@H](C)[C@@H](O[C@H]2C[C@@](C)(OC)[C@@H](O)[C@H](C)O2)[C@H](C)[C@@H](O[C@@H]2O[C@H](C)C[C@H](N(C)C)[C@H]2O)[C@](C)(O)C[C@@H](C)CN(C)[C@H](C)[C@@H](O)[C@]1(C)O` [AZI, azithromycin]?
Answer: CLSI QC range of MIC [1]: 0.5 to 2 µg/mL; CLSI QC range of MIC ([1]; listed as Azithromycin): (0.5-2)^1 μg/mL

Question: What does the source list for `CO/N=C(\C(=O)N[C@@H]1C(=O)N2C(C(=O)O)=C(CSc3nc(=O)c(=O)[nH]n3C)CS[C@H]12)c1csc(N)n1` [CRO, ceftriaxone]?
Answer: Number of isolates at MIC 0.015 μg mL^−1 [2]: 6; Number of isolates at MIC 0.03 μg mL^−1 [2]: 1; Number of isolates at MIC 0.06 μg mL^−1 [2]: 6; Number of isolates at MIC 0.08 μg mL^−1 [2]: 5; Number of isolates at MIC 0.12 μg mL^−1 [2]: 1; Number of isolates at MIC 0.25 μg mL^−1 [2]: 2; Number of isolates at MIC 0.5 μg mL^−1 [2]: 0; Number of isolates at MIC 1 μg mL^−1 [2]: 0; Number of isolates at MIC 2 μg mL^−1 [2]: 1; Number of isolates at MIC 4 μg mL^−1 [2]: 0; Number of isolates at MIC 8 μg mL^−1 [2]: 0; Number of isolates at MIC >8 μg mL^−1 [2]: 0; Number of isolates at MIC ≤0.004 μg mL^−1 [2]: 3; MIC [2, 3]: 0.015 µg/mL (≈ 0.027 µM); MIC ([2]; N. gonorrhoeae CDC0165): 0.06 µg/mL (≈ 0.108 µM); MIC ([2]; N. gonorrhoeae CDC0167): 0.004 µg/mL (≈ 0.00721 µM); MIC ([2]; N. gonorrhoeae CDC 0175): 0.008 µg/mL (≈ 0.0144 µM); MIC ([2]; N. gonorrhoeae CDC 0177): 0.015 µg/mL (≈ 0.027 µM); MIC ([2]; N. gonorrhoeae CDC 0178): 0.06 µg/mL (≈ 0.108 µM); MIC ([2]; N. gonorrhoeae CDC 0181): 0.008 µg/mL (≈ 0.0144 µM); MIC ([2]; N. gonorrhoeae CDC 0194): 0.25 µg/mL (≈ 0.451 µM); MIC ([2]; N. gonorrhoeae CDCO174): 0.06 µg/mL (≈ 0.108 µM); MIC [2, 4]: 0.06 µg/mL (≈ 0.108 µM); MIC [2, 5]: < 0.004 µg/mL; MIC [2, 6]: 0.015 µg/mL (≈ 0.027 µM); MIC [2, 7]: 0.015 µg/mL (≈ 0.027 µM); MIC [2, 8]: 0.25 µg/mL (≈ 0.451 µM); MIC [2, 9]: 0.008 µg/mL (≈ 0.0144 µM); MIC [2, 10]: 0.008 µg/mL (≈ 0.0144 µM); MIC [2, 11]: 0.015 µg/mL (≈ 0.027 µM); MIC [2, 12]: 0.002 µg/mL (≈ 0.00361 µM); MIC [2, 13]: 0.015 µg/mL (≈ 0.027 µM); MIC [2, 14]: 0.12 µg/mL (≈ 0.216 µM); MIC [2, 15]: 2 µg/mL (≈ 3.61 µM); MIC50 [2]: 0.015 µg/mL (≈ 0.027 µM); MIC90 [2]: 0.25 µg/mL (≈ 0.451 µM); CLSI QC range of MIC [1]: 1 to 8 µg/mL; CLSI QC range of MIC ([1]; listed as Ceftriaxone): (1-8)^1 μg/mL

Question: Which results are given for `C=C(C)C1CCC(C)=CC1c1c(O)cc(CCCCC)cc1O` (centres unmarked) [CBD, 2-[3-methyl-6-(1-methylethenyl)-2-cyclohexen-1-yl]-5-pentyl-1,3-benzenediol]?
Answer: Number of isolates at MIC 0.015 μg mL^−1 [2]: 0; Number of isolates at MIC 0.03 μg mL^−1 [2]: 0; Number of isolates at MIC 0.06 μg mL^−1 [2]: 0; Number of isolates at MIC 0.08 μg mL^−1 [2]: 0; Number of isolates at MIC 0.12 μg mL^−1 [2]: 0; Number of isolates at MIC 0.25 μg mL^−1 [2]: 0; Number of isolates at MIC 0.5 μg mL^−1 [2]: 2; Number of isolates at MIC 1 μg mL^−1 [2]: 14; Number of isolates at MIC 2 μg mL^−1 [2]: 9; Number of isolates at MIC 4 μg mL^−1 [2]: 0; Number of isolates at MIC 8 μg mL^−1 [2]: 0; Number of isolates at MIC >8 μg mL^−1 [2]: 0; Number of isolates at MIC ≤0.004 μg mL^−1 [2]: 0; MIC [2, 3]: 2 µg/mL (≈ 6.36 µM); MIC ([2]; N. gonorrhoeae CDC0165): 2 µg/mL (≈ 6.36 µM); MIC ([2]; N. gonorrhoeae CDC0166): 9 µg/mL (≈ 28.6 µM); MIC ([2]; N. gonorrhoeae CDC0167): 1 µg/mL (≈ 3.18 µM); MIC ([2]; N. gonorrhoeae CDC 0172): 7 µg/mL (≈ 22.3 µM); MIC ([2]; N. gonorrhoeae CDC 0175): 1 µg/mL (≈ 3.18 µM); MIC ([2]; N. gonorrhoeae CDC 0177): 1 µg/mL (≈ 3.18 µM); MIC ([2]; N. gonorrhoeae CDC 0178): 2 µg/mL (≈ 6.36 µM); MIC ([2]; N. gonorrhoeae CDC 0180): 7 µg/mL (≈ 22.3 µM); MIC ([2]; N. gonorrhoeae CDC 0181): 0.5 µg/mL (≈ 1.59 µM); MIC ([2]; N. gonorrhoeae CDC 0194): 1 µg/mL (≈ 3.18 µM); MIC ([2]; N. gonorrhoeae CDCO174): 2 µg/mL (≈ 6.36 µM); MIC [2, 4]: 1 µg/mL (≈ 3.18 µM); MIC [2, 5]: 1 µg/mL (≈ 3.18 µM); MIC [2, 6]: 1 µg/mL (≈ 3.18 µM); MIC [2, 7]: 0.5 µg/mL (≈ 1.59 µM); MIC [2, 8]: 2 µg/mL (≈ 6.36 µM); MIC [2, 9]: 1 µg/mL (≈ 3.18 µM); MIC [2, 10]: 1 µg/mL (≈ 3.18 µM); MIC [2, 11]: 1 µg/mL (≈ 3.18 µM); MIC ([2]; NCTC13484, N. gonorrhoeae NCTC 13484 (WHO P)): 7 µg/mL (≈ 22.3 µM); MIC [2, 12]: 1 µg/mL (≈ 3.18 µM); MIC [2, 13]: 1 µg/mL (≈ 3.18 µM); MIC [2, 14]: 1 µg/mL (≈ 3.18 µM); MIC [2, 15]: 1 µg/mL (≈ 3.18 µM); MIC50 [2]: 1 µg/mL (≈ 3.18 µM); MIC90 [2]: 2 µg/mL (≈ 6.36 µM)

Source: patent US20230015949A1, “NEISSERIA TREATMENT USING CANNABINOIDS” (priority 2019, published 2023)
